According to PubChem BioAssay AID1259333 (Broad Institute, 2017):
Values joined by “and” are separate entries in the source; they are usually repeats but may differ in a detail not shown here. Equal values may be shown once. Active and inactive are the calls of the source. The rule behind the calls is not given here; tested in parental BL2 cells.

Tested on: cytotoxicity, CellTiter-Glo ATP luminescence
Experiment: cell cytotoxicity, dose response, cytotoxicity control, CellTiter-Glo (AID 1259333);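 for activity change, negative = cytotoxicity: 0% = vehicle neutral controls and -100% = reference inhibitor positive controls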
Conditions: not given

| SMILES | AC50 |
| --- | --- |
| CO[C@H]1CC(O[C@@H]2/C(C)=C/C[C@@H]3C[C@@H](C[C@]4(CC[C@H](C)[C@@H](C5CCCCC5)O4)O3)OC(=O)[C@@H]3C=C(C)/C(=N/O)[C@H]4OC/C(=C\C=C\[C@@H]2C)[C@]43O)O[C@@H](C)C1O (some centres not stated) | 9.15 µM |
| CC1OC(CC(=O)O)CC2=C1C(=O)c1c(O)cccc1C2=O (configuration not stated) | 1.06 µM |
| COc1ccc(/C=C\c2nc(=O)c3ccccc3o2)cc1 | 6.79 µM |
| COc1ccc(CC2C(=O)NC(C)C(=O)N(C)C3Cc4ccc(cc4)Oc4cc(ccc4O)CC(C(=O)NC(C)C(=O)NC(C)C(=O)N2C)N(C)C3=O)cc1 (configuration not stated) | 10.8 µM |
| COC(=O)C1=C(C(=O)OC)C(C(=O)OC)C(C(=O)OC)C(C(=O)OC)(C(=O)OC)C(C(=O)OC)=C1C(=O)OC (configuration not stated) | 7.79 µM |
| Cc1ccc(OCCn2cnc3c(N)ncnc32)cc1 | > 20 µM (inactive) |
| CC(C)(C)CC(C)(C)c1ccc(O)c(Cc2ccc(Cl)cc2Cl)c1 | 7.05 µM |
| C[C@@H]1CCCCO[C@@H](CN(C)S(=O)(=O)c2ccc(Cl)cc2)[C@H](C)CN([C@H](C)CO)C(=O)c2cc(NC(=O)Nc3ccc(C(F)(F)F)cc3)ccc2O1 | 6.61 µM |
| CC1=C(C#N)c2nc(N)c(C#N)c(C)c2/C1=C\c1ccccc1 | 8.93 µM |
| C[C@@H]1CN([C@@H](C)CO)C(=O)c2ccccc2-c2ccccc2CO[C@@H]1CN(C)Cc1ccccc1C(F)(F)F | > 20 µM (inactive) |
| CC12CCC3C(CCC4(O)CC(O)CCC34C=NO)C1(O)CCC2C1=COC(=O)C1 (configuration not stated) | 0.322 µM |
| O=C(Cc1ccccc1)N1CC[C@@H]2[C@H]1c1cc(C#Cc3cccc(F)c3)ccc1N[C@@H]2CO | 10.8 µM |
| CCS(=O)(=O)N1Cc2ccccc2CC1C(=O)Nc1nc2ccccc2s1 (configuration not stated) | 5.74 µM |
| Cc1c(CCOC(=O)CC23CC4CC(CC(C)(C4)C2)C3)sc[n+]1CC(=O)c1ccccc1 | 5.88 µM |
| COCC(=O)N1[C@H](C#N)[C@H](c2ccc(C#Cc3ccccc3F)cc2)[C@H]1CO | 11.5 µM |
| O=C(NCCC(c1ccccc1)c1ccco1)c1cccs1 (configuration not stated) | > 20 µM (inactive) |
| Cc1cc(C)nc(Sc2ncnc(N)c2[N+](=O)[O-])n1 | > 20 µM (inactive) |
| C=C1CC(Cn2cc(Br)c(=O)[nH]c2=O)(c2ccc(-c3ccccc3)cc2)OC1=O (configuration not stated) | 6.59 µM |
| N#C[C@@H]1[C@H](c2ccc(C#CC3CCCC3)cc2)[C@@H](CO)N1C(=O)Nc1ccc(F)cc1 | > 20 µM (inactive) |
| CC[N+]1(C)CCC(O)(c2ccc(OC)cc2)C(C(=O)c2ccc(OC)cc2)C1 (configuration not stated) | 5.1 µM |
| O=C1/C(=C/c2ccccc2)C[C@@]2(O)C3Cc4ccc(O)c5c4[C@@]2(CCN3CC2CC2)[C@H]1O5 | 2.6 µM |
| Fc1ccccc1CNCCC(Cc1ccccc1)c1ccc2c(c1)OCO2 (configuration not stated) | > 20 µM (inactive) |

| SMILES | AC50 |
| --- | --- |
| CC1OC(OC2C(O)CC(OC3C(O)CC(OC4CCC5(C)C(CCC6C5CCC5(C)C(C7=CC(=O)OC7)C(O)CC65O)C4)OC3C)OC2C)CC(O)C1O (configuration not stated) | 0.625 µM |
| COc1cc2cc(C(=O)N3CC(COS(C)(=O)=O)c4ccc(O)cc43)[nH]c2c(OC)c1OC (configuration not stated) | 0.276 µM |
| COc1cccc(C#Cc2ccc([C@H]3[C@@H](C#N)N(C(=O)c4ccccn4)[C@@H]3CO)cc2)c1 | 9.74 µM |
| COc1cc(/C=N/n2cnnc2)ccc1OC(=O)c1ccncc1 | 8.07 µM |
| C[C@@H]1CN([C@H](C)CO)C(=O)c2c(c3ccccc3n2C)-c2ccccc2CO[C@H]1CN(C)C(=O)Nc1cccc(Cl)c1Cl | 10.1 µM |
| C[C@@H]1CN([C@H](C)CO)C(=O)c2ccccc2-c2ccccc2CO[C@@H]1CN(C)C(=O)c1cc(Cl)cc(Cl)c1 | 8.71 µM |
| C[C@@H]1CN([C@@H](C)CO)C(=O)c2ccccc2-c2ccccc2CO[C@H]1CN(C)Cc1ccccc1C(F)(F)F | 7.28 µM |
| CC(=O)OC1CC2(O)C3CCC4CC(O)CCC4(C)C3CCC2(C)C1C1=CC(=O)OC1 (configuration not stated) | 0.559 µM |
| Cn1cc(C2=C(c3cn(CCCSC(=N)N)c4ccccc34)C(=O)NC2=O)c2ccccc21 | 0.388 µM |
| C[C@@H]1CCCCO[C@H](CN(C)Cc2ccc(C(F)(F)F)cc2)[C@@H](C)CN([C@@H](C)CO)C(=O)c2cc(NC(=O)Nc3cccc4ccccc34)ccc2O1 | 10.7 µM |
| C[C@@H]1CCCCO[C@H](CN(C)CC2CCCCC2)[C@H](C)CN([C@@H](C)CO)C(=O)c2cc(NC(=O)Nc3ccc(C(F)(F)F)cc3)ccc2O1 | 4.91 µM |
| CCN1/C(=C/c2sc(-c3ccccc3C)c[n+]2C)Sc2ccccc21 | 9.06 µM |
| O=C1NC2c3c(I)sc(I)c3C(=O)C2O1 (configuration not stated) | 6.34 µM |
| O=C1c2c(O)ccc(O)c2C(=O)c2c(NCCNCCO)ccc(NCCNCCO)c21 | 5.78 µM |
| Oc1c(Cl)cc(Cl)c(Cl)c1Cc1c(O)c(Cl)cc(Cl)c1Cl | 10.2 µM |
| O=C(COC(=O)c1ccccc1C(=O)c1ccc(Cl)c([N+](=O)[O-])c1)NC1CC1 | 2.45 µM |
| CC1CC(C)C(=NNC(N)=O)C(C(O)CC2CCC(=O)NC2=O)C1 (configuration not stated) | > 20 µM (inactive) |
| COc1ccccc1C(=O)Nc1ccc2c(c1)C(=O)N(C)[C@H]1CC[C@H](CC(=O)Nc3cccc(C(C)C)c3)O[C@@H]1CO2 | > 20 µM (inactive) |
| CC1=CC2OC3CC4OC(=O)C=CC=CC(=O)OCCC(C)C(O)C(=O)OCC2(CC1O)C4(C)C31CO1 (configuration not stated) | 7.23 µM |
| N#Cc1cccc(-c2ccc(C3[C@H]4CNC[C@@H]3N4Cc3ccc4c(c3)OCO4)cc2)c1 (some centres not stated) | > 20 µM (inactive) |
| CN1C(=O)/C(=N\OC(=O)c2cccc3ccccc23)c2ccccc21 | 4.04 µM |
| NC(c1csc(NC(=O)Nc2cccc(Cl)c2)n1)c1ccccc1Cl (configuration not stated) | > 20 µM (inactive) |

| SMILES | AC50 |
| --- | --- |
| COc1ccc(CNCCC(c2ccc(F)cc2)c2ccc(OC(C)C)cc2)cc1OC (configuration not stated) | 5.85 µM |
| c1cc(-c2cnn3cc(-c4ccc(OCCN5CCCCC5)cc4)cnc23)ccn1 | 1.44 µM |
| CC(C)(C)[C@H](N)C(=O)N[C@H]1CCC2C3CC=C4C[C@@H](O)CC[C@]4(C)C3CC[C@@]21C (some centres not stated) | 5.7 µM |
| C[C@@H]1CN([C@@H](C)CO)C(=O)c2c(c3ccccc3n2C)-c2ccccc2CO[C@@H]1CN(C)Cc1cccc(C(F)(F)F)c1 | > 20 µM (inactive) |
| C[C@@H]1CN([C@H](C)CO)C(=O)c2cc(NC(=O)Nc3cccc4ccccc34)ccc2O[C@@H](C)CCCCO[C@H]1CN(C)Cc1ccc(C(F)(F)F)cc1 | > 20 µM (inactive) |
| C[C@H]1CN([C@@H](C)CO)C(=O)c2ccccc2-c2ccccc2CO[C@@H]1CN(C)Cc1ccccc1C(F)(F)F | 10.5 µM |
| CC(=O)NCCCC(=O)NC(CCC(=O)OCc1ccccc1)C(=O)OCc1ccccc1 (configuration not stated) | 9.31 µM |
| CN(C)c1ccc(C=c2c3cc(O)ccc3n3c2cc(-c2ccccc2)[n+]3C)cc1 | 10.8 µM |
| CC(C)NC(=O)N1CC(=O)N2[C@H](CO)[C@@H](c3ccc(/C=C/c4ccccc4)cc3)[C@H]2C1 | > 20 µM (inactive) |
| CC1OC(OC2CC(O)C3(CO)C4C(O)CC5(C)C(C6=CC(=O)OC6)CCC5(O)C4CCC3(O)C2)C(O)C(O)C1O (configuration not stated) | 0.236 µM |
| Cc1ccc(CN2CC(C(=O)Nc3ncc(C)s3)CC2=O)cc1 (configuration not stated) | > 20 µM (inactive) |
| N#C[C@H]1[C@H](c2ccc(C#CC3CCCCC3)cc2)[C@H](CO)N1C(=O)Nc1ccc(F)cc1 | > 20 µM (inactive) |
| COc1ccc(C(=O)O/N=C2\C(=O)N(C)c3ccccc32)cc1 | 2 µM |
| O=C(Nc1ccc([N+](=O)[O-])cc1Cl)c1cc(Cl)ccc1O | > 7 µM (inactive) |
| CNC(=S)NN=C(C)CCCC(C)=NNC(=S)NC | 10.3 µM |
| COc1c(-c2coc3cc4c(cc3c2=O)CC(O)C(C)(C)O4)ccc2c1C=CC(C)(C)O2 (configuration not stated) | > 20 µM (inactive) |
| N#C[C@@H]1[C@H](c2ccc(C#CC3CCCCC3)cc2)[C@H](CO)N1C(=O)Nc1ccc(F)cc1 | > 20 µM (inactive) |
| OCC1OC(n2cnc3cc(Cl)c(Cl)cc32)C(O)C1O (configuration not stated) | > 20 µM (inactive) |
| CCCC(C)Sc1nc2c([nH]1)c(=S)n(C)c(=O)n2C (configuration not stated) | 8.95 µM |
| COc1ccc(CN2CC3(CN(C(=O)Cc4ccccc4)C3)c3c([nH]c4cc(OC)ccc34)[C@@H]2CO)cc1 | 9.43 µM |

Tested on: not listed separately
Experiment: as above
Conditions: cytotoxicity, CellTiter-Glo ATP luminescence; at 10 µM (top of the series)

| SMILES | activity change, negative = cytotoxicity |
| --- | --- |
| Cc1noc(C)c1S(=O)(=O)Nc1ccc2c(c1)C(=O)N([C@H](C)CO)C[C@@H](C)[C@H](CN(C)C(=O)Nc1cccc3ccccc13)OCCCC[C@@H](C)O2 | 33.4% (inactive) |
| CC=Cc1cc2c(c(=O)o1)C(=O)C(O)C(C)O2 (configuration not stated) | 37.6% (inactive) |
| N#C[C@@H]1[C@H](c2ccc(C#Cc3ccccc3F)cc2)[C@@H](CO)N1C(=O)C1CC1 | 38% (inactive) |
| CC(C)CC#Cc1ccc([C@@H]2[C@H]3CN(C(=O)Nc4ccccc4)CCCCN3[C@H]2CO)cc1 | 40.2% (inactive) |
| Nc1nc(=O)c2ccccc2s1 | 19.7% (inactive) |
| C[C@@H]1CN([C@@H](C)CO)C(=O)c2cc(C#CCc3ccccc3)cnc2O[C@@H]1CN(C)C(=O)C1CCOCC1 | 5.87% (inactive) |
| O=C(COC(=O)c1ccccc1)c1ccc2c(c1)OCCO2 | 21.1% (inactive) |
| CC12CC[C@H]3[C@@H](CCC4(O)C[C@H](O)CCC34/C=N/NC(=O)Cc3ccccc3)C1(O)CCC2C1=CC(=O)OC1 (some centres not stated) | 25% (inactive) |
| CS(=O)(=O)c1ccc(C(=O)OCC(=O)NC(=O)C2CCCCC2)cc1[N+](=O)[O-] | 42.9% (inactive) |
| COc1ccc2cc(-c3cc(C(=O)O)c4ccccc4n3)ccc2c1 | 6.64% (inactive) |
| CCc1csc(N2[C@H](C#N)[C@H](c3ccc(C#Cc4ccc(F)cc4)cc3)[C@H]2CO)n1 | 30% (inactive) |
| C=C1C(=O)OC2CC1C(O)CC(C)=CCCC(C)=CC(O)CC2C (configuration not stated) | 35.5% (inactive) |
| CC[C@@]1(O)C(=O)OCc2c1cc1n(c2=O)Cc2cc3cc(O)ccc3nc2-1 | 12.3% (inactive) |
| Cc1ccc(N2CC(C(=O)Nc3nccs3)CC2=O)cc1Cl (configuration not stated) | 22.3% (inactive) |
| O=C(COc1cccnc1[N+](=O)[O-])c1ccc(Cl)s1 | 33.6% (inactive) |
| COc1ccc2c3c(n(C)c2c1)[C@H](CO)N(C(=O)Nc1ccc(F)cc1)CC31CCN(C(=O)Nc2ccc(F)cc2F)CC1 | 29.2% (inactive) |
| O=C(c1ccc(F)cc1)N1C[C@@H]2N[C@H](C1)C2c1ccc(/C=C/c2ccccc2)cc1 (some centres not stated) | 12.7% (inactive) and 35.5% (inactive) |
| c1ccc(-c2ccc(-c3ccccn3)nn2)nc1 | -10.2% (inactive) |
